This note sets out measurements from patent US20080234262A1 (Wyeth, priority 2007, published 2008).

What is called IC50 is the midpoint of a concentration-inhibition curve.

The target of one test is PI3K (Homo sapiens, UniProt P42336). The experiment in a line: Fluorescence polarization assay for PI3K.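 Also: PI3K kinase reaction on PIP2 with ATP, 30-60 min, product sensed by GST-GRP with red probe in fluorescence polarization (mP), controls without enzyme and at zero time.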 It counts as biochemical. As to conditions: PI3Kα; read-out: PI3Kα IC50. (In general: In fluorescence polarisation assays a small probe gives low polarisation when free and higher when bound to something large.)
PI3K, sequence (P42336 whole entry): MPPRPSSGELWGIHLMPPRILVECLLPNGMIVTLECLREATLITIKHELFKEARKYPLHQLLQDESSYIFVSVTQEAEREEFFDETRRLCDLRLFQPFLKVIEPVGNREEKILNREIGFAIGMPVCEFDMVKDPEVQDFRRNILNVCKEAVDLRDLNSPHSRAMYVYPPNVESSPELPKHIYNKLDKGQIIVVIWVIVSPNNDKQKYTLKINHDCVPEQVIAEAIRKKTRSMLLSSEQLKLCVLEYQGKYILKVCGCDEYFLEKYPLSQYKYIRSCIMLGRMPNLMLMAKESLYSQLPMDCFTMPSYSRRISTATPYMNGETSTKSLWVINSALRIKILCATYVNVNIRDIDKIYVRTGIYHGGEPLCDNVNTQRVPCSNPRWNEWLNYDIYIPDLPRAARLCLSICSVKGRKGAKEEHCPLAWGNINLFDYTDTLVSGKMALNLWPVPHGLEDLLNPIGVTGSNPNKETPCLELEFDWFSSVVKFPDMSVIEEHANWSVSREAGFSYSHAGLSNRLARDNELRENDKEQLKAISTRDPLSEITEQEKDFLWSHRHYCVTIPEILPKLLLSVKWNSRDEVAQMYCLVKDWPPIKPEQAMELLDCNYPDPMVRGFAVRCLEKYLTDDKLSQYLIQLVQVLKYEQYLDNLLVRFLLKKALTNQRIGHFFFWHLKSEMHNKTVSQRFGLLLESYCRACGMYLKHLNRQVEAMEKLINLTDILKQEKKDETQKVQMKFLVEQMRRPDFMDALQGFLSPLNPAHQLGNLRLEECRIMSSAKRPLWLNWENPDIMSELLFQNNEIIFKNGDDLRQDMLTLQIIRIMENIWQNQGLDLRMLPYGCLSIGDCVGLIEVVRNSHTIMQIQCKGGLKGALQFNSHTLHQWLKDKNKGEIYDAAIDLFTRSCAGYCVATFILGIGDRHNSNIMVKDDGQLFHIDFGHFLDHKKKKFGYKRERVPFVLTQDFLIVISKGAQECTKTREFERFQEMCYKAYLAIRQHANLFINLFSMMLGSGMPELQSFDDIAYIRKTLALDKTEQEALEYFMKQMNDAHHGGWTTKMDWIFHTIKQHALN
PI3K, sequence (P27986 whole entry partner): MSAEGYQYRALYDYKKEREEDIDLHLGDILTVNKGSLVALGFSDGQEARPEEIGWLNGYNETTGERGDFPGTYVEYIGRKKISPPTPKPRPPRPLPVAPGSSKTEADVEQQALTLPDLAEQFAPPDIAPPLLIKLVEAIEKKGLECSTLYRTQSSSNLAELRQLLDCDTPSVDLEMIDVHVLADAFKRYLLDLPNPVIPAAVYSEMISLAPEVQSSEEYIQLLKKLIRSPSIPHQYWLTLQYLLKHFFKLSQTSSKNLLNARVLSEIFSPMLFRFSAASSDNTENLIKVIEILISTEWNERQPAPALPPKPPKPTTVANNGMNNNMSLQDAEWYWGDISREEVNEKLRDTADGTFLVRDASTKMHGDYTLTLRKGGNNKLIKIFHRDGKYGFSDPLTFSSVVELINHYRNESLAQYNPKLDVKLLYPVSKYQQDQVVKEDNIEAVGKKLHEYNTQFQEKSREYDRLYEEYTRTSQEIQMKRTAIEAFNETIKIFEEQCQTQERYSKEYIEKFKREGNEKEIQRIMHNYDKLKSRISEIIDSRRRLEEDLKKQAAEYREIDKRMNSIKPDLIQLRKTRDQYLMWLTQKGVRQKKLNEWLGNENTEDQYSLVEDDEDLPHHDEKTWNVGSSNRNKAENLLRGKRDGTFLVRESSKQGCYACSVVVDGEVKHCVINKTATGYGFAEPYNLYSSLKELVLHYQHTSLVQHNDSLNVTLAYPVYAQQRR
The next test concerns prostate line LNCap. The experiment in a line: In vitro cell culture growth assay (MTS), LNCap. It counts as cell-based, human. Conditions: LNCap cells, three days after drug treatment.
For a further test, the system named is breast line MDA468. Nature of the test: In vitro cell culture growth assay (MTS), MDA468. Conditions: MDA468 cells, three days after drug treatment. Format: cell-based, human. A digest of the protocol: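 Cells were plated and, one day later, exposed to inhibitors for three days; viable cell density was then measured by metabolic conversion of MTS dye, read as absorbance at 490 nm. Growth is expressed as percent of vehicle-treated control cells on the same plate.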

A value given as a limit tells only on which side of the number the result lay.

Take `O=C(NCCCO)Nc1ccc(-c2nc(N3CCOCC3)c3cnn(C4CCN(Cc5ccccc5)CC4)c3n2)cc1` [Compound 514, 1-{4-[1-(1-benzylpiperidin-4-yl)-4-morpholin-4-yl-1H-pyrazolo[3,4-d]pyrimidin-6-yl]phenyl}-3-(3-hydroxypropyl)urea]: the 50% inhibitory concentration (IC50) on PI3K was 0.364 µM; with prostate line LNCap (Homo sapiens, LNCaP, 72 h) it was 0.08 µM; in the test with breast line MDA468 (Homo sapiens, 72 h), 0.65 µM.

For the molecule `O=C(Nc1ccncc1)Nc1ccc(-c2nc(N3CCOCC3)c3cnn(C4CCN(CC(F)(F)F)CC4)c3n2)cc1` [Compound 786, 1-(4-{4-morpholin-4-yl-1-[1-(2,2,2-trifluoroethyl)piperidin-4-yl]-1H-pyrazolo[3,4-d]pyrimidin-6-yl}phenyl)-3-pyridin-4-ylurea], the IC50 on PI3K worked out at 0.048 µM; in the test on prostate line LNCap (Homo sapiens, LNCaP, 72 h), 0.08 µM; in the test with breast line MDA468 (Homo sapiens, 72 h), 1.1 µM.

For `CN(C)c1ccc(CN2CCC(n3ncc4c(N5CCOCC5)nc(-c5ccc6[nH]ccc6c5)nc43)CC2)cc1` [Example 58], the half-inhibitory concentration (IC50) is 0.428 µM on PI3K; 1.2 µM with prostate line LNCap (Homo sapiens, LNCaP, 72 h); 1.5 µM in the test with breast line MDA468 (Homo sapiens, 72 h).

As to `CCCNC(=O)Nc1ccc(-c2nc(N3CCOCC3)c3cnn(C4CCN(C(=O)OCCC)CC4)c3n2)cc1` [Compound 853, propyl 4-(4-morpholin-4-yl-6-{4-[(propylcarbamoyl)amino]phenyl}-1H-pyrazolo[3,4-d]pyrimidin-1-yl)piperidine-1-carboxylate], the 50% inhibitory concentration (IC50) stood at 0.824 µM at PI3K; 0.13 µM in the test on prostate line LNCap (Homo sapiens, LNCaP, 72 h); 1 µM with breast line MDA468 (Homo sapiens, 72 h).

Consider `CNC(=O)Nc1ccc(-c2nc(N3CCOCC3)c3cnn(C4CCN(C(=O)N(C)C)CC4)c3n2)cc1` [Example 473, N,N-dimethyl-4-(6-{4-[(methylcarbamoyl)amino]phenyl}-4-morpholin-4-yl-1H-pyrazolo[3,4-d]pyrimidin-1-yl)piperidine-1-carboxamide], for which the IC50 on PI3K turned out to be 0.209 µM; in the test on prostate line LNCap (Homo sapiens, LNCaP, 72 h), 0.2 µM; with breast line MDA468 (Homo sapiens, 72 h), 0.5 µM.

`CCCOC(=O)N1CCC(n2ncc3c(N4CCOCC4)nc(-c4ccc(NC(=O)NCC5CC5)cc4)nc32)CC1` [Compound 858, propyl 4-[6-(4-{[(cyclopropylmethyl)carbamoyl]amino}phenyl)-4-morpholin-4-yl-1H-pyrazolo[3,4-d]pyrimidin-1-yl]piperidine-1-carboxylate]: the half-maximal inhibitory concentration (IC50) on PI3K is 2.15 µM; in the test with prostate line LNCap (Homo sapiens, LNCaP, 72 h), 0.8 µM; with breast line MDA468 (Homo sapiens, 72 h), 3.2 µM.

As to `CNC(=O)Nc1ccc(-c2nc(N3CCOCC3)c3cnn(C4CCN(C(=O)OCc5ccccc5)CC4)c3n2)cc1` [Compound 880, benzyl 4-(6-{4-[(methylcarbamoyl)amino]phenyl}-4-morpholin-4-yl-1H-pyrazolo[3,4-d]pyrimidin-1-yl)piperidine-1-carboxylate], the IC50 on PI3K was determined as 0.02 µM; in the test with prostate line LNCap (Homo sapiens, LNCaP, 72 h) it was 0.03 µM; with breast line MDA468 (Homo sapiens, 72 h) it was 0.22 µM.

In the case of `CNC(=O)Nc1ccc(-c2nc(N3CCOCC3)c3cnn(C4CCN(C(=O)c5ccc(Cl)nc5)CC4)c3n2)cc1` [Example 424, 1-[4-(1-{1-[(6-chloropyridin-3-yl)carbonyl]piperidin-4-yl}-4-morpholin-4-yl-1H-pyrazolo[3,4-d]pyrimidin-6-yl)phenyl]-3-methylurea], the IC50 on PI3K amounted to 0.084 µM; with prostate line LNCap (Homo sapiens, LNCaP, 72 h), 0.15 µM; with breast line MDA468 (Homo sapiens, 72 h) it was 0.4 µM.

On to `O=C(Nc1ccc(-c2nc(N3CCOCC3)c3cnn(C4CCN(Cc5cccnc5)CC4)c3n2)cc1)Nc1cccs1` [Example 404, 1-(4-{4-morpholin-4-yl-1-[1-(pyridin-3-ylmethyl)piperidin-4-yl]-1H-pyrazolo[3,4-d]pyrimidin-6-yl}phenyl)-3-(2-thienyl)urea], for which the concentration for half-maximal inhibition (IC50) on PI3K was 0.009 µM; with prostate line LNCap (Homo sapiens, LNCaP, 72 h), 0.027 µM; with breast line MDA468 (Homo sapiens, 72 h), 0.1 µM.

With `O=CN1CCC(n2ncc3c(N4CCOCC4)nc(-c4ccc5[nH]ccc5c4)nc32)CC1` [Compound 251, 4-[6-(1H-indol-5-yl)-4-morpholin-4-yl-1H-pyrazolo[3,4-d]pyrimidin-1-yl]piperidine-1-carbaldehyde], the half-maximal inhibitory concentration (IC50) at PI3K was 2.8 µM; in the test with prostate line LNCap (Homo sapiens, LNCaP, 72 h), 1 µM; in the test on breast line MDA468 (Homo sapiens, 72 h), 3 µM.

Turning to “methyl [4-(1-{1-[(6-fluoropyridin-3-yl)methyl]piperidin-4-yl}-4-morpholin-4-yl-1H-pyrazolo[3,4-d]pyrimidin-6-yl)phenyl]carbamate [Compound 697]”, the half-inhibitory concentration (IC50) on PI3K was found to be 1.2 µM; in the test on prostate line LNCap it was 0.9 µM; with breast line MDA468, 6 µM.

Take `CCNC(=O)Nc1ccc(-c2nc(N3CCOCC3)c3cnn(C4CCN(Cc5ccccc5)CC4)c3n2)cc1F` [Example 349, 1-{4-[1-(1-benzylpiperidin-4-yl)-4-morpholin-4-yl-1H-pyrazolo[3,4-d]pyrimidin-6-yl]-2-fluorophenyl}-3-ethylurea]: the IC50 on PI3K stood at 0.485 µM; with prostate line LNCap (Homo sapiens, LNCaP, 72 h) it was 0.23 µM; in the test with breast line MDA468 (Homo sapiens, 72 h), 2.5 µM.

`O=C(Nc1ccncc1)Nc1ccc(-c2nc(N3CCOCC3)c3cnn(C4CCN(Cc5cccnc5)CC4)c3n2)cc1F` [Compound 599, 1-(2-fluoro-4-{4-morpholin-4-yl-1-[1-(pyridin-3-ylmethyl)piperidin-4-yl]-1H-pyrazolo[3,4-d]pyrimidin-6-yl}phenyl)-3-pyridin-4-ylurea]: the concentration for half-maximal inhibition (IC50) at PI3K was 0.034 µM; in the test on prostate line LNCap (Homo sapiens, LNCaP, 72 h) it was under 0.027 µM; in the test on breast line MDA468 (Homo sapiens, 72 h), 0.082 µM.

Regarding `CNC(=O)Nc1ccc(-c2nc(N3CCOCC3)c3cnn(C4CCN(Cc5cccnc5Cl)CC4)c3n2)cc1` [Example 390, 1-[4-(1-{1-[(2-chloropyridin-3-yl)methyl]piperidin-4-yl}-4-morpholin-4-yl-1H-pyrazolo[3,4-d]pyrimidin-6-yl)phenyl]-3-methylurea], the concentration for half-maximal inhibition (IC50) is 0.09 µM at PI3K; 0.045 µM in the test on prostate line LNCap (Homo sapiens, LNCaP, 72 h); 0.1 µM in the test with breast line MDA468 (Homo sapiens, 72 h).

In the case of `CCn1nc(C#CCN(C)C)c2c(N3CCOCC3)nc(-c3ccc(NC(=O)NC)cc3)nc21` [Compound 955, 1-(4-{3-[3-(dimethylamino)prop-1-yn-1-yl]-1-ethyl-4-morpholin-4-yl-1Hpyrazolo[3,4-d]pyrimidin-6-yl}phenyl)-3-methylurea], the IC50 on PI3K is 0.025 µM; in the test with prostate line LNCap (Homo sapiens, LNCaP, 72 h), 0.18 µM; with breast line MDA468 (Homo sapiens, 72 h) it was 0.5 µM.

For the molecule `c1ccc(-n2ncc3c(N4CCOCC4)nc(-c4ccc5[nH]ncc5c4)nc32)cc1` [Example 432, 6-(1H-indazol-5-yl)-4-morpholin-4-yl-1-phenyl-1H-pyrazolo[3,4-d]pyrimidine], the IC50 on PI3K was found to be 0.44 µM; in the test with prostate line LNCap (Homo sapiens, LNCaP, 72 h), 20 µM; with breast line MDA468 (Homo sapiens, 72 h) it was 60 µM.

Turning to `O=C(NCCCc1ccccc1)Nc1ccc(-c2nc(N3CCOCC3)c3cnn(C4CCN(Cc5ccccc5)CC4)c3n2)cc1` [Compound 506, 1-{4-[1-(1-benzylpiperidin-4-yl)-4-morpholin-4-yl-1H-pyrazolo[3,4-d]pyrimidin-6-yl]phenyl}-3-(3-phenylpropyl)urea], the 50% inhibitory concentration (IC50) at PI3K was 7.03 µM; in the test with prostate line LNCap (Homo sapiens, LNCaP, 72 h), 4.5 µM; in the test on breast line MDA468 (Homo sapiens, 72 h) it was over 60 µM.

For the molecule `CNC(=O)Nc1ccc(-c2nc(N3CCOCC3)c3cnn(C4CCN(C(=O)c5ccc(C)nc5)CC4)c3n2)cc1` [Example 420, 1-methyl-3-[4-(1-{1-[(6-methylpyridin-3-yl)carbonyl]piperidin-4-yl}-4-morpholin-4-yl-1H-pyrazolo[3,4-d]pyrimidin-6-yl)phenyl]urea], the IC50 at PI3K came to 0.119 µM; in the test with prostate line LNCap (Homo sapiens, LNCaP, 72 h) it was 0.33 µM; with breast line MDA468 (Homo sapiens, 72 h), 0.3 µM.

For `C#CCNC(=O)Nc1ccc(-c2nc(N3CCOCC3)c3cnn(C4CCN(Cc5ccccc5)CC4)c3n2)cc1` [Compound 312, 1-{4-[1-(1-benzylpiperidin-4-yl)-4-morpholin-4-yl-1H-pyrazolo[3,4-d]pyrimidin-6-yl]phenyl}-3-prop-2-yn-1-ylurea], the IC50 at PI3K was determined as 0.173 µM; in the test with prostate line LNCap (Homo sapiens, LNCaP, 72 h), 0.4 µM; with breast line MDA468 (Homo sapiens, 72 h), 3.9 µM.

As for `c1ccc(-n2ncc3c(N4CCOCC4)nc(-c4ccc5sccc5c4)nc32)cc1` [Compound 105], the half-inhibitory concentration (IC50) at PI3K came out at 3.08 µM; in the test on prostate line LNCap (Homo sapiens, LNCaP, 72 h), 60 µM; in the test with breast line MDA468 (Homo sapiens, 72 h), 60 µM.

In the case of `O=C(NO)Nc1ccc(-c2nc(N3CCOCC3)c3cnn(C4CCN(Cc5ccccc5)CC4)c3n2)cc1` [Compound 310, 1-{4-[1-(1-benzylpiperidin-4-yl)-4-morpholin-4-yl-1H-pyrazolo[3,4-d]pyrimidin-6-yl]phenyl}-3-hydroxyurea], the 50% inhibitory concentration (IC50) is 0.199 µM on PI3K; 0.1 µM with prostate line LNCap (Homo sapiens, LNCaP, 72 h); 1.1 µM with breast line MDA468 (Homo sapiens, 72 h).

Regarding `COC(=O)Nc1ccc(-c2nc(N3CCOCC3)c3cnn(C4CCN(C(=O)C(C)C)CC4)c3n2)cc1` [Compound 810, methyl {4-[1-(1-isobutyrylpiperidin-4-yl)-4-morpholin-4-yl-1H-pyrazolo[3,4-d]pyrimidin-6-yl]phenyl}carbamate], the half-maximal inhibitory concentration (IC50) at PI3K worked out at 2.23 µM; with prostate line LNCap (Homo sapiens, LNCaP, 72 h), 1.3 µM; in the test with breast line MDA468 (Homo sapiens, 72 h), 3 µM.

On to `Clc1ccc(-c2nc(N3CCOCC3)c3cnn(C4CCN(Cc5ccccc5)CC4)c3n2)cn1` [Compound 156], for which the IC50 on PI3K was determined as 0.45 µM; in the test with prostate line LNCap (Homo sapiens, LNCaP, 72 h), 3.3 µM; in the test with breast line MDA468 (Homo sapiens, 72 h), 35 µM.

Consider `CNC(=O)Nc1ccc(-c2nc(N3CCOCC3)c3cnn(C4CCN(C(=O)c5ccc(Cl)cc5)CC4)c3n2)cc1` [Compound 608, 1-(4-{1-[1-(4-chlorobenzoyl)piperidin-4-yl]-4-morpholin-4-yl-1H-pyrazolo[3,4-d]pyrimidin-6-yl}phenyl)-3-methylurea], for which the IC50 on PI3K came out at 0.042 µM; in the test with prostate line LNCap (Homo sapiens, LNCaP, 72 h), 0.052 µM; in the test with breast line MDA468 (Homo sapiens, 72 h) it was 0.4 µM.

`CC(=O)Nc1ccc(-c2nc(N3CCOCC3)c3cnn(Cc4ccccc4)c3n2)cc1` [Compound 180]: the IC50 was 0.405 µM on PI3K; 2 µM in the test on prostate line LNCap (Homo sapiens, LNCaP, 72 h); 5.8 µM with breast line MDA468 (Homo sapiens, 72 h).

As for `Clc1cc(-c2nc(N3CCOCC3)c3cnn(C4CCN(Cc5ccccc5)CC4)c3n2)ccn1` [Compound 157], the IC50 on PI3K was found to be 1.03 µM; in the test on prostate line LNCap (Homo sapiens, LNCaP, 72 h) it was 33 µM; with breast line MDA468 (Homo sapiens, 72 h), 60 µM.
